“Also recorded” adds a separate entry of the source.
What was measured:
[1] = tested on: cocaine-induced hyperactivity; experiment: Cocaine interaction study in mice (cocaine-induced locomotion increase); type: in vivo, Swiss-Webster Mice; details: 100 mg/kg ip, cocaine 20 mg/kg ip
Text: Typically, psychostimulant addictive drugs as amphetamine and cocaine induce an increase in locomotor activity in rodents and primate. Some compounds with anti-addictive potential properties can prevent the increase in locomotor activity induced by psychostimulant drugs. (Katz J L, Kopajtic T A, Myers K A, Mitkus R J, Chider M, Behavioral effects of cocaine: interactions with D1 dopaminergic antagonists and agonists in mice and squirrel monkeys. J Pharmacol Exp Ther. 1999 October; 291(1):265-79).
The effect of test compounds is evaluated in a mice model of cocaine-induced locomotion increase.
Subjects: Swiss-Webster Mice, Male
Apparatus: Automated Photocell Chambers
Drugs: Cocaine 20 mg/kg is administered ip, test compounds dissolved in vehicle are administered ip at different doses (10-100 mg/kg) right before cocaine.
Behavioral test; Animals (8 per experimental group) received ip injection of cocaine (20 mg/kg) or saline and either the test compounds (10-100 mg/kg ip) or their vehicle and locomotor activity is recorded for 1 hour. […]
Maximal effect: The 30 min time period in which cocaine (20 mg/kg) produces the maximal activity is used to determine test compound effect. […] The AD50 (dose that attenuates cocaine-induced stimulation by 50%) is determined from the linear regression analysis.

cocaine detoxification = details: rats and human; cited from earlier work
[2] = tested on: patients with idiopathic RLS; experiment: Open label RLS study, 2 week administration in 10 patients with idiopathic RLS; type: in vivo, human
Method: In an open label study conducted on 10 patients with idiopathic RLS, 2 week administration of (S)-(+)-2-[4-(3-Fluorobenzyloxy)-benzylamino]-propanamide 100 mg/die resulted efficacious in improving RLS symptoms. Patients were included in the study if they fulfilled the minimal diagnostic criteria according to the International RLS Study Group. Patients' symptoms had to interfere with sleep onset or maintenance for at least 6 months and at least 15 nights during the last 12 weeks, and they should have IRLS 10(International Restless Legs Syndrome) score equal to or greater than 15 at baseline assessment. Physical examination, biochemical and haematological laboratory tests and electrocardiogram were performed to ensure that selection criteria were fulfilled. Polysomnography was performed for 2 nights at baseline and 2 nights at the end of treatment, in order to verify the effects of (S)-(+)-2-[4-(3-Fluorobenzyloxy)benzylamino]propanamide on sleep. Efficacy was measured through the following evaluation scales: International Restless Legs Syndrome 10 (IRLS 10), Restless Legs Syndrome Quality of Life (RLS QoL), Work Productivity and Activity Impairment Questionnaire (WPAI RLS) and Clinical Global Impression (CGI part I and CGI part II).
Ten out of 10 patients enrolled were considered eligible for the efficacy analysis: ail of them completed the planned period of treatment of 14+3 days. […] As to the main disease, it was considered severe in 70% of patients according to CGI criteria and confirmed by IRLS-10 score, with an impact on daily activity, that could be quantified (according to WPAI-RLS, and RLS-QoLQ results) in about ⅓ of the usual performances.

alcohol dependence = details: clinical study; cited from earlier work
smoking cessation = details: 200 mg/day; from 17 to 30%; cited from earlier work
[3] = 100 mg/die, 2 weeks, 10 patients

Structure (SMILES): C#CCN(C)[C@H](C)Cc1ccccc1 [Selegeline, selegiline, reference compound]
- effect on cocaine-induced hyperactivity (total locomotor activity) [1]: did not reverse
- anti-reinforcing effect during cocaine detoxification (cocaine detoxification): moderate anti-reinforcing effect

Structure (SMILES): C[C@H](NCc1ccc(OCc2cccc(F)c2)cc1)C(N)=O [(S)-(+)-2-[4-(3-Fluorobenzyloxy)-benzylamino]propanamide]
- improvement of RLS symptoms ([2]; 100 mg/die, 2 week administration, 10 patients): efficacious; also recorded: significant improvement
- adverse events [2, 3]: no adverse events
- tolerability [2, 3]: well tolerated
- CGI part II changes from previous visit: Minimally Improved ([2]; Final visit): 5 (50) N (%)
- CGI part II changes from previous visit: Much Improved ([2]; Final visit): 2 (20) N (%)
- CGI part II changes from previous visit: No change ([2]; Final visit): 1 (10) N (%)
- CGI part II changes from previous visit: Very Much Improved ([2]; Final visit): 2 (20) N (%)
- IRLS 10 Score, Impact, Mean ([2]; Final visit (baseline 4.20)): 3.00
- IRLS 10 Score, Associate Features, mean ([2]; Final visit (baseline 5.10)): 4.30
- IRLS 10 Score, Severity, mean ([2]; Final visit (baseline 7.00)): 6.00
- IRLS 10 Score, Diagnostic Features, mean ([2]; Final visit (baseline 11.20)): 8.50
- IRLS 10 Score, Total Score, mean ([2]; Final visit (baseline 27.50)): 21.80
- IRLS 10 Score, Diagnostic Features, changes ([2]; Final vs Baseline, p 0.002): −2.70
- IRLS 10 Score, Total Score, changes ([2]; Final vs Baseline, p 0.002): −5.70
- IRLS 10 Score, Impact, changes ([2]; Final vs Baseline, p 0.003): −1.20
- IRLS 10 Score, Severity, changes ([2]; Final vs Baseline, p 0.063): −1.00
- IRLS 10 Score, Associate Features, changes ([2]; Final vs Baseline, p 0.070): −0.80
- CGI part I: patients with stable disease ([2]; after 2 weeks): 40%
- CGI part II: patients with improvement of any grading ([2]; after 2 weeks): 90%
- CGI part II: patients with no changes ([2]; after 2 weeks): 10%
- WPAI-RLS item 6 impairment of daily activities ([2]; after 2 weeks (from 34% at baseline), p=0.005, FIG. 3): 22%
- Polysomnographic registration: PLM (Wake+Sleep) Index ([2]; after 2 weeks versus baseline, FIG. 4): statistically significant improvement versus baseline
- Polysomnographic registration: PLM Sleep Index ([2]; after 2 weeks versus baseline, FIG. 5): statistically significant improvement versus baseline
- Polysomnographic registration: PLM Wake Index ([2]; after 2 weeks versus baseline, FIG. 6): statistically significant improvement versus baseline
- RLS-QoLQ total score ([2]; after 2 weeks vs baseline, p=0.002, FIG. 2): significant decrease
- CGI part I: patients with improvement in disease situation ([2]; after 2 weeks, P=0,031): 60%
- IRLS-10 scale total score, result in words ([2]; after 2 weeks, p=0.002): statistically significant improvement
- safety profile ([2]; conclusion of the trial): good safety profile
- effect on cocaine-induced hyperactivity (total locomotor activity) [1]: significantly decreased

Structure (SMILES): CC1(C)O[C@@H]2[C@@H](CO[C@@]3(COS(N)(=O)=O)OC(C)(C)O[C@@H]23)O1 [topiramate]
- efficacy in the treatment of alcohol dependence (alcohol dependence): efficacious

Structure (SMILES): NCCNC(=O)c1ccc(Cl)cn1 [lazabemide]
- percentage of smoking cessation (smoking cessation): 30%

— patent US8697738B2, “Alpha-aminoamide derivatives useful in the treatment of addictive disorders” (Newron Pharmaceuticals S.p.A., priority 2004, dated 2014)
